The text below walks through data of patent publication US20240252488A1 (KOREA RESEARCH INSTITUTE OF CHEMICAL TECHNOLOGY, priority 2020, published 2024).

Experiment [1] relates to FADD−/− Jurkat cells. Kind of experiment: Necroptosis inhibition assay, TNF-α-induced necroptosis (CellTiter-Glo 2.0). The class given is cell-based, human. As to conditions: TNF-α 15 ng/mL; for Necroptosis inhibition assay (Rescue %) 1 μM: compound 1 μM; for Necroptosis inhibition assay (Rescue %) 10 μM: compound 10 μM. The gist of the method:
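Tested at three fixed concentrations (0.1, 1, 10 μM final) with a 30-minute room-temperature preincubation ahead of 15 ng/mL TNF-α challenge lasting 20 to 24 hours. Inhibition rate and cytotoxicity derive from ATP luminescence.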
(In general: ATP-based viability assays read luminescence as a measure of living cells.)

Experiment [2] addresses T1, MLKL (Homo sapiens, UniProt Q8NB16).
T1 sequence (Q8NB16 1-471): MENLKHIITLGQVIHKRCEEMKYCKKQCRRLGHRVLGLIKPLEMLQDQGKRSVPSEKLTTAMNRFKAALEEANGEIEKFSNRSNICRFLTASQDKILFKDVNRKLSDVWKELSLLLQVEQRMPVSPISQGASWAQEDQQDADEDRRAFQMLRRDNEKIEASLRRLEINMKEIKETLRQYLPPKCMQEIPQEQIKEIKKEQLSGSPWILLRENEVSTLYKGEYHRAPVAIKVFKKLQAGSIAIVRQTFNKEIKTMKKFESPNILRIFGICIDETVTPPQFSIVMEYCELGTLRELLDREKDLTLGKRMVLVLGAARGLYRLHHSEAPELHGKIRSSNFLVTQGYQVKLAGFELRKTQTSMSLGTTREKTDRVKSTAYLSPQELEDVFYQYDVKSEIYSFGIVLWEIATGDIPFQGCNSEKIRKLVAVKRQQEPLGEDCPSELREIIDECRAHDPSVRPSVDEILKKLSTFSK
Kind of experiment: MLKL degradation assay in HepG2 cell line (western blot). Type of experiment: cell-based. Further details: endogenous in cells; host or cells: HepG2 or HaCaT. As to conditions: cell line not given; for Degradation assay (Degradation %) 1 μM: compound 1 μM; for Degradation assay (Degradation %) 10 μM: compound 10 μM. In outline: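 Degradation is judged from MLKL band intensity on immunoblots of HepG2 lysates taken after 20-24 hours of compound at final 1 or 10 μM.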

Experiment [3] deals with T1, MLKL. Kind of experiment: Measurement of binding affinity with MLKL receptor (competitive binding assay, Kd). On the set-up: made in house; host or cells: HEK 293 cell line (T7 phage in E. coli BL21-derived host is also described). The gist of the method:
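MLKL was produced in HEK 293 cells and tagged with DNA for detection. Liganded beads were blocked with excess biotin and washed to cut non-specific binding, then compounds (111× DMSO stocks, 0.9% DMSO in assay) competed for binding. Eluate kinase was measured by qPCR for Kd.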

For `Nc1ncc(-c2cnn(C3CCN(CCCN4CCN(C(=O)CC5CCN(c6cccc7c6C(=O)N(C6CCC(=O)NC6=O)C7=O)CC5)CC4)CC3)c2)nc1C(=O)O[C@@H](C(=O)Nc1ccc(F)cc1)c1ccccc1` (stereo partly drawn) [TDH-368, (R)-2-((4-fluorophenyl)amino)-2-oxo-1-phenylethyl 3-amino-6-(1-(1-(3-(4-(2-(1-(2-(2,6-dioxopiperidin-3-yl)-1,3-dioxoisoindolin-4-yl)piperidin-4-yl)acetyl)piperazin-1-yl)propyl)piperidin-4-yl)-1H-pyrazol-4-yl)pyrazine-2-carboxylate], in experiment [1], the “Necroptosis inhibition assay (Rescue %) 1 μM” value was determined as 40.51% and the “Necroptosis inhibition assay (Rescue %) 10 μM” value was determined as 5.97%. In experiment [2], the “Degradation assay (Degradation %) 1 μM” value was determined as 86.09% and the “Degradation assay (Degradation %) 10 μM” value amounted to 88.6%. The same compound came in with a Kd in experiment [3] of 1 nM.

For the compound `Nc1ncc(-c2cnn(C3CCN(C(=O)CCC4CCN(C(=O)C5CCN(c6cccc7nnn(C8CCC(=O)NC8=O)c(=O)c67)CC5)CC4)CC3)c2)nc1C(=O)O[C@@H](C(=O)Nc1ccc(F)cc1)c1ccccc1` (stereo partly drawn) [TDH-435, (R)-2-((4-fluorophenyl)amino)-2-oxo-1-phenylethyl 3-amino-6-(1-(1-(3-(1-(1-(3-(2,6-dioxopiperidin-3-yl)-4-oxo-3,4-dihydrobenzo[d][1,2,3]triazin-5-yl)piperidine-4-carbonyl)piperidin-4-yl)propanoyl)piperidin-4-yl)-1H-pyrazol-4-yl)pyrazine-2-carboxylate], in experiment [1] (FADD−/− Jurkat cells), the “Necroptosis inhibition assay (Rescue %) 1 μM” value is on record as 18.26% and the “Necroptosis inhibition assay (Rescue %) 10 μM” value is reported as 11.49%. In addition, in experiment [2], the “Degradation assay (Degradation %) 1 μM” value is recorded as 79.73% and the “Degradation assay (Degradation %) 10 μM” value is 64.92%. The compound also returned a Kd in experiment [3] of 1.8 nM.

As to `COc1ccc(C(=O)N2CCC(C(=O)N3CCC4(CC3)CC(N3CCC(CN5CCC(n6cc(-c7cnc(N)c(C(=O)O[C@@H](C(=O)Nc8ccc(F)cc8)c8ccccc8)n7)cn6)CC5)CC3)C4)CC2)cc1N1CCC(=O)NC1=O` [TDH-508, (R)-2-((4-fluorophenyl)amino)-2-oxo-1-phenylethyl 3-amino-6-(1-(1-((1-(7-(1-(3-(2,4-dioxotetrahydropyrimidin-1(2H)-yl)-4-methoxybenzoyl)piperidine-4-carbonyl)-7-azaspiro[3.5]nonan-2-yl)piperidin-4-yl)methyl)piperidin-4-yl)-1H-pyrazol-4-yl)pyrazine-2-carboxylate], in experiment [1] (FADD−/− Jurkat cells), the “Necroptosis inhibition assay (Rescue %) 1 μM” value is on record as 48.15% and the “Necroptosis inhibition assay (Rescue %) 10 μM” value was 39.79%. Moreover, in experiment [2], the “Degradation assay (Degradation %) 1 μM” value was determined as 87.16% and the “Degradation assay (Degradation %) 10 μM” value was found to be 90.95%. This compound gave a Kd in experiment [3] of 0.4 nM.

Take `Nc1ncc(-c2cnn(C3CCN(C(=O)CCC4CCN(C(=O)C5CN(c6ccc7c(c6)C(=O)N(C6CCC(=O)NC6=O)C7=O)C5)CC4)CC3)c2)nc1C(=O)O[C@@H](C(=O)Nc1ccc(F)cc1)c1ccccc1` (stereo partly drawn) [TDH-428, (R)-2-((4-fluorophenyl)amino)-2-oxo-1-phenylethyl 3-amino-6-(1-(1-(3-(1-(1-(2-(2,6-dioxopiperidin-3-yl)-1,3-dioxoisoindolin-5-yl)azetidine-3-carbonyl)piperidin-4-yl)propanoyl)piperidin-4-yl)-1H-pyrazol-4-yl)pyrazine-2-carboxylate]: in experiment [1] (FADD−/− Jurkat cells), the “Necroptosis inhibition assay (Rescue %) 1 μM” value is 27.27% and the “Necroptosis inhibition assay (Rescue %) 10 μM” value turned out to be 9.58%. Besides, in experiment [2], the “Degradation assay (Degradation %) 1 μM” value stood at 58.66% and the “Degradation assay (Degradation %) 10 μM” value stood at 85.95%. Besides, the Kd in experiment [3] turned out to be 4.1 nM.

Take `Nc1ncc(-c2cnn(C3CCN(C(=O)C4CCN(C(=O)C5CCN(c6ccc7nnn(C8CCC(=O)NC8=O)c(=O)c7c6)CC5)CC4)CC3)c2)nc1C(=O)O[C@@H](C(=O)Nc1ccc(F)cc1)c1ccccc1` (stereo partly drawn) [TDH-410, (R)-2-((4-fluorophenyl)amino)-2-oxo-1-phenylethyl 3-amino-6-(1-(1-(1-(1-(3-(2,6-dioxopiperidin-3-yl)-4-oxo-3,4-dihydrobenzo[d][1,2,3]triazin-6-yl)piperidine-4-carbonyl)piperidine-4-carbonyl)piperidin-4-yl)-1H-pyrazol-4-yl)pyrazine-2-carboxylate]: in experiment [1] (FADD−/− Jurkat cells), the “Necroptosis inhibition assay (Rescue %) 1 μM” value is 48.51% and the “Necroptosis inhibition assay (Rescue %) 10 μM” value is listed as 27.36%. In experiment [2], the “Degradation assay (Degradation %) 1 μM” value is 85.29% and the “Degradation assay (Degradation %) 10 μM” value was 65.91%. This compound also gave a Kd in experiment [3] of 1.1 nM.

`Nc1ncc(-c2cnn(C3CCN(CCCCCCNC(=O)C4CN(c5cccc6c5C(=O)N(C5CCC(=O)NC5=O)C6=O)C4)CC3)c2)nc1C(=O)O[C@@H](C(=O)Nc1ccc(F)cc1)c1ccccc1` (stereo partly drawn) [TDH-113, (R)-2-((4-fluorophenyl)amino)-2-oxo-1-phenylethyl 3-amino-6-(1-(1-(6-(1-(2-(2,6-dioxopiperidin-3-yl)-1,3-dioxoisoindolin-4-yl)azetidine-3-carboxamido)hexyl)piperidin-4-yl)-1H-pyrazol-4-yl)pyrazine-2-carboxylate]: in experiment [1], the “Necroptosis inhibition assay (Rescue %) 1 μM” value came out at 24.96% and the “Necroptosis inhibition assay (Rescue %) 10 μM” value is on record as 5.16%. In addition, in experiment [2], the “Degradation assay (Degradation %) 1 μM” value was found to be 24.54% and the “Degradation assay (Degradation %) 10 μM” value was 19.24%. Moreover, the Kd in experiment [3] was determined as 2.3 nM.

`Nc1ncc(-c2cnn(C3CCN(CCCN4CC5CC4CN5C(=O)CNc4ccc5c(c4)C(=O)N(C4CCC(=O)NC4=O)C5=O)CC3)c2)nc1C(=O)O[C@@H](C(=O)Nc1ccc(F)cc1)c1ccccc1` (stereo partly drawn) [TDH-454, (R)-2-((4-fluorophenyl)amino)-2-oxo-1-phenylethyl 3-amino-6-(1-(1-(3-(5-((2-(2,6-dioxopiperidin-3-yl)-1,3-dioxoisoindolin-5-yl)glycyl)-2,5-diazabicyclo[2.2.1]heptan-2-yl)propyl)piperidin-4-yl)-1H-pyrazol-4-yl)pyrazine-2-carboxylate]: in experiment [1] (FADD−/− Jurkat cells), the “Necroptosis inhibition assay (Rescue %) 1 μM” value was 65.44% and the “Necroptosis inhibition assay (Rescue %) 10 μM” value is on record as 39.99%. Moreover, in experiment [2], the “Degradation assay (Degradation %) 1 μM” value amounted to 87.16% and the “Degradation assay (Degradation %) 10 μM” value is reported as 90.47%. In addition, in experiment [3], the Kd was 2 nM.

Turning to `Nc1ncc(-c2cnn(C3CCN(CCC4CCN(C(=O)c5ccc6c(c5)CN(C5CCC(=O)NC5=O)C6=O)CC4)CC3)c2)nc1C(=O)O[C@@H](C(=O)Nc1ccc(F)cc1)c1ccccc1` (stereo partly drawn) [TDH-547, (R)-2-((4-fluorophenyl)amino)-2-oxo-1-phenylethyl 3-amino-6-(1-(1-(2-(1-(2-(2,6-dioxopiperidin-3-yl)-1-oxoisoindoline-5-carbonyl)piperidin-4-yl)ethyl)piperidin-4-yl)-1H-pyrazol-4-yl)pyrazine-2-carboxylate], in experiment [1] (FADD−/− Jurkat cells), the “Necroptosis inhibition assay (Rescue %) 1 μM” value is 35.18% and the “Necroptosis inhibition assay (Rescue %) 10 μM” value is reported as 19.80%. Besides, in experiment [2], the “Degradation assay (Degradation %) 1 μM” value is on record as 93.36% and the “Degradation assay (Degradation %) 10 μM” value turned out to be 68.21%. For the same compound, in experiment [3], binding was put at a Kd of 0.43 nM.

Take `Nc1ncc(-c2cnn(C3CCN(CC4CCN(C(=O)COc5ccc6c(c5)C(=O)N(C5CCC(=O)NC5=O)C6=O)CC4)CC3)c2)nc1C(=O)N[C@@H](C(=O)Nc1ccc(F)cc1)c1ccccc1` (stereo partly drawn) [TDH-187, 3-amino-6-(1-(1-((1-(2-((2-(2,6-dioxopiperidin-3-yl)-1,3-dioxoisoindolin-5-yl)oxy)acetyl)piperidin-4-yl)methyl)piperidin-4-yl)-1H-pyrazol-4-yl)-N-((R)-2-((4-fluorophenyl)amino)-2-oxo-1-phenylethyl)pyrazine-2-carboxamide]: in experiment [1], the “Necroptosis inhibition assay (Rescue %) 1 μM” value was 28.68% and the “Necroptosis inhibition assay (Rescue %) 10 μM” value is reported as 29.31%. Moreover, the “Degradation assay (Degradation %) 1 μM” value in experiment [2] is given as 27.67%. The compound further displayed a Kd in experiment [3] of 150 nM.

As to `Nc1ncc(-c2cnn(C3CCN(C(=O)COC4CCN(C(=O)CNc5cccc6c5C(=O)N(C5CCC(=O)NC5=O)C6=O)CC4)CC3)c2)nc1C(=O)O[C@@H](C(=O)Nc1ccc(F)cc1)c1ccccc1` (stereo partly drawn) [TDH-395, (R)-2-((4-fluorophenyl)amino)-2-oxo-1-phenylethyl 3-amino-6-(1-(1-(2-((1-((2-(2,6-dioxopiperidin-3-yl)-1,3-dioxoisoindolin-4-yl)glycyl)piperidin-4-yl)oxy)acetyl)piperidin-4-yl)-1H-pyrazol-4-yl)pyrazine-2-carboxylate], in experiment [1], the “Necroptosis inhibition assay (Rescue %) 1 μM” value is on record as 34.73% and the “Necroptosis inhibition assay (Rescue %) 10 μM” value stood at 37.15%. In experiment [2], the “Degradation assay (Degradation %) 1 μM” value was determined as 88.76% and the “Degradation assay (Degradation %) 10 μM” value worked out at 89.67%. The compound also displayed a Kd in experiment [3] of 6.1 nM.

Usually Kd stands for the constant that tells how readily two partners part at equilibrium.
